Assay [1] deals with TGFBR1 (ALK5) (Homo sapiens (Human), UniProt P36897). Kind of assay: LanthaScreen Eu Kinase Binding Assay TGFBR1 (ALK5) (ThermoFisher SelectScreen). The following applies: read-out: TβRI (ALK5) Binding IC50. As for the experimental part:
(§1) Exemplified compounds were confirmed to inhibit ALK5 activity in enzyme and cellular assays in the following assay systems conducted by ThermoFisher in Madison, Wis. according to their commercially available protocols.
ThermoFisher SelectScreen™ Biochemical Kinase Profiling Service, LanthaScreen™Eu Kinase Binding Assay TGFBR1 (ALK5)
Exemplified compounds were screened in 1% DMSO (final concentration) by 3-fold serial dilutions from 10,000 nM to 0.316 nM to produce an IC50 or at single concentrations of 10,000, 1000 and 100 nM according to the following protocol. To low volume, white 384-well plates (Greiner Cat #784207) add 160 nL 100× compound in 100% DMSO, 3.84 uL kinase buffer (50 mM HEPES, pH 7.5, 0.01% BRIJ-35, 10 mM MgCl2, 1 mM EGTA), 8 uL 2× kinase/antibody mixture in kinase buffer (final ALK5 concentration of 5 nM; final Eu-anti-GST antibody concentration of 2 nM), 4 uL 4× Tracer #178 in kinase buffer (final concentration of 5 nM). Gently shake the plates for 30 seconds and incubate at room temperature for 1 hour before reading fluorescence on a plate reader. Percent inhibition was determined compared to DMSO only control (maximal ALK5 tracer binding) and sigmoidal dose response curve fit yielded IC50 values as indicated in Table 2.
Background: In TR-FRET formats the signal depends on donor and acceptor labels being close together.

Assay [2] concerns TGF-beta 1 stimulated SBE-b1a HEK 293T cells. Kind of assay: GeneBLAzer beta-lactamase reporter, TGF-beta 1 stimulated SBE-b1a HEK 293T cell-based assay (ThermoFisher SelectScreen). The conditions noted are these: Homo sapiens, HEK-293T; TGF-beta 1 0.03 nM, 5 hours; inhibitor 10,000 nM to 0.316 nM; sigmoidal dose response curve fit; read-out: Cells (SBE_HEK293T) IC50. As to the method: as §1
ThermoFisher SelectScreen™ Cell-Based Pathway Profiling Service GeneBLAzer Beta-Lactamase (b1a) Reporter Technology—TGF-Beta 1 Stimulated SBE-b1a HEK 293T Cell-Based Assay
SBE-b1a HEK 293T cells were thawed and re-suspended in Assay Media (OPTI-MEM, 0.5% dialyzed FBS, 0.1 mM NEAA, 1 mM Sodium Pyruvate, 100 U/mL/100 μg/mL Pen/Strep) to a concentration of 625,000 cells/mL. 32 μL of cell suspension (20,000 cells) was added to each well of a 384-well Poly-D-Lysine assay plate. Cells in Assay Media were incubated for 16-24 hours in the plate at 37° C./5% CO2 in a humidified incubator. 4 μL of a 10× serial dilution of ALK5 inhibitors (10x=100,000-3.16 nM) was added to appropriate wells of the plate and pre-incubated at 37° C./5% CO2 in a humidified incubator with cells for 30 minutes. Final concentration of inhibitor ranged from 10,000 nM to 0.316 nM. 4 μL of 10× TGF-beta 1 (final concentration of 0.03 nM) was added to wells containing the inhibitors. The plate was incubated for 5 hours at 37° C./5% CO2 in a humidified incubator. 8 μL of 1 μM Substrate Loading Solution was added to each well and the plate was incubated for 2 hours at room temperature before being read on a fluorescence plate reader. Percent inhibition was determined compared to DMSO only control (maximal TGF-beta 1 stimulation) and sigmoidal dose response curve fit yielded IC50 values as indicated in Table 2.

The mark [3] stands for this setting: 3-fold serial dilutions 10,000 nM to 0.316 nM, ALK5 5 nM, Tracer #178 5 nM, sigmoidal dose response curve fit.
Setting [4] is: compounds marked with an asterisk: evaluated at three concentrations, IC50 depicted as less than the lowest concentration producing >50% inhibition.

Structures can show the parent of a compound that is named as a salt. Where two headings read alike, the source gives them in different places.

Chain of TGFBR1 (ALK5) (P36897 34-503): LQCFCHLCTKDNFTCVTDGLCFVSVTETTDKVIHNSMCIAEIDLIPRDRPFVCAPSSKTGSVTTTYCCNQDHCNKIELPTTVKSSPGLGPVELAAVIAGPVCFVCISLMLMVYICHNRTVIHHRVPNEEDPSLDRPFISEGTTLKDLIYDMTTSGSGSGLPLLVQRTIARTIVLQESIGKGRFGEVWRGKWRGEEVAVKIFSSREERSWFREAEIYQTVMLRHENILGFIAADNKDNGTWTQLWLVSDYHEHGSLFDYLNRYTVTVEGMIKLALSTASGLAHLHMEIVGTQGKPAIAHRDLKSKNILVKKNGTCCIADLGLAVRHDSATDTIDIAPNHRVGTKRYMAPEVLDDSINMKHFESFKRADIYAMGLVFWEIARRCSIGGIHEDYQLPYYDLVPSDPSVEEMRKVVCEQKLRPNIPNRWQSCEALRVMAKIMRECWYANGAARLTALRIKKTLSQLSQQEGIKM

On to `NC(=O)c1ccc(-c2nc(-c3ccn(C(F)F)n3)c(-c3ccc4ncsc4c3)[nH]2)cc1` [Compound 61], for which the IC50 (usually the midpoint of a concentration-inhibition curve) is 7.55 nM in assay [1] (setting [3]) and 65.3 nM in assay [2].
Consider `CC(C)n1ccc(-c2nc(CNc3cccc(F)c3)[nH]c2-c2ccc3ncc(C(N)=O)n3n2)n1` [Compound 34], for which the IC50 came out at 49 nM in assay [1] (setting [3]) and 379 nM in assay [2].
As to `Cn1ccc(-c2nc(CNc3cccc(F)c3)[nH]c2-c2ccc3ncnn3c2)n1` [Compound 6, N-((5-([1,2,4]triazolo[1,5-a]pyridin-6-yl)-4-(1-methyl-1H-pyrazol-3-yl)-1H-imidazol-2-yl)methyl)-3-fluoroaniline hydrochloride], the figures for the IC50 in assay [1] (setting [3]) and in assay [2] were 354 nM and 3870 nM, respectively.
For `Cc1cc(C(N)=O)cc(C)c1-c1nc(-c2ccn(C)n2)c(-c2ccc3ncsc3c2)[nH]1` [Compound 63], in that order: 399 nM and 3030 nM.
For `Fc1cccc(NCc2nc(-c3ccn(C(F)F)n3)c(-c3ccc4nccnc4c3)[nH]2)c1` [Compound 46], in that order: 5.6 nM and 11.6 nM.
For `Cn1ccc(-c2nc[nH]c2-c2ccc3ncsc3c2)n1` [Compound 55], the IC50 in assay [1] (setting [3]) is 4.71 nM; in assay [2], 132 nM.
The matching figures for `CC(C)n1ccc(-c2nc(CNc3ccccc3)[nH]c2-c2ccc3ncnn3c2)n1` [Compound 10, N-((5-([1,2,4]triazolo[1,5-a]pyridin-6-yl)-4-(1-isopropyl-1H-pyrazol-3-yl)-1H-imidazol-2-yl)methyl)aniline hydrochloride]: 264 nM and 2660 nM.
`CC(C)n1ccc(-c2nc(CNc3ccccc3F)[nH]c2-c2ccc3ncccc3c2)n1` [Compound 33, 2-fluoro-N-((4-(1-isopropyl-1H-pyrazol-3-yl)-5-(quinolin-6-yl)-1H-imidazol-2-yl)methyl)aniline hydrochloride]: the IC50 in assay [1] (setting [4]) was less than 200 nM; in assay [2] it was 9120 nM.
With `Cn1ccc(-c2nc[nH]c2-c2ccc3nccnc3c2)n1` [Compound 56], the half-maximal inhibitory concentration (IC50) in assay [1] (setting [3]) was determined as 43.6 nM; in assay [2], 1050 nM.
For the compound `CC(C)n1ccc(-c2nc(CNc3cccc(C(N)=O)c3)[nH]c2-c2ccc3ncnn3c2)n1` [Compound 29, 3-(((5-([1,2,4]triazolo[1,5-a]pyridin-6-yl)-4-(1-isopropyl-1H-pyrazol-3-yl)-1H-imidazol-2-yl)methyl)amino)benzamide], the figures for the IC50 in assay [1] (setting [4]) and in assay [2] were less than 100 nM and 4620 nM, respectively.
`Cn1ccc(-c2nc(CNc3ccc(F)cc3)[nH]c2-c2ccc3ncnn3c2)n1` [Compound 8, N-((5-([1,2,4]triazolo[1,5-a]pyridin-6-yl)-4-(1-methyl-1H-pyrazol-3-yl)-1H-imidazol-2-yl)methyl)-4-fluoroaniline hydrochloride]: the IC50 is 811 nM in assay [1] (setting [3]) and more than 10000 nM in assay [2].
Turning to `CC(C)n1ccc(-c2nc(CNc3cc(F)cc(C(N)=O)c3)[nH]c2-c2ccc3nccnc3c2)n1` [Compound 58], the IC50 in assay [1] (setting [3]) came to 78 nM; in assay [2], 3920 nM.
As for `N#Cc1cccc(NCc2nc(-c3ccn(C(F)F)n3)c(-c3ccc4nccnc4c3)[nH]2)c1` [Compound 47], the IC50 in assay [1] (setting [3]) was found to be 6.6 nM; in assay [2] it was 19.5 nM.
The matching figures for `CN(C)C(=O)c1ccc(-c2nc(-c3ccn(C)n3)c(-c3ccc4ncsc4c3)[nH]2)cc1` [Compound 66]: 285 nM and 1360 nM.
With `Fc1cc(F)cc(NCc2nc(-c3ccn(C4CC4)n3)c(-c3ccc4nccnc4c3)[nH]2)c1` [Compound 68], the IC50 in assay [1] (setting [3]) amounted to 1.2 nM; in assay [2] it was 10.9 nM.
The matching figures for `CC(C)n1ccc(-c2nc(CNc3cc(F)cc(F)c3)[nH]c2-c2ccc3ncnn3c2)n1` [Compound 36, N-((5-([1,2,4]triazolo[1,5-a]pyridin-6-yl)-4-(1-isopropyl-1H-pyrazol-3-yl)-1H-imidazol-2-yl)methyl)-3,5-difluoroaniline hydrochloride]: 103 nM and 507 nM.

These data come from patent publication US11124509B2, “Tri-substituted imidazoles for the inhibition of TGF beta and methods of treatment” (CLAVIUS PHARMACEUTICALS, LLC, priority 2017, dated 2021).
